# Test results reported in US8334315B2, “Substituted aromatic carboxamide and urea derivatives as vanilloid receptor ligands” (Gruenenthal GmbH, priority 2009, dated 2012).
# Molecular target: T1, hVR1 (Homo sapiens, UniProt Q8NER1)
# T1 construct: expressed in transfected cells; host or cells: CHO K1 cells (ECACC), stably transfected
# Test: Functional test on VR1, FLIPR Ca2+ influx in transfected CHO K1 cells, capsaicin
# Type: cell-based, human being
# Design: key to Ki (human being) [nM] Cap: agonist / partial agonist / no effect: AG=agonist; pAG=partial agonist; NE=no effect
# Details: not given
# Text: In the process, the Ca^2+ influx is quantified in the FLIPR assay with the aid of a Ca^2+-sensitive dye (type Fluo-4, Molecular Probes Europe BV, Leiden, the Netherlands) in a fluorescent imaging plate reader (FLIPR, Molecular Devices, Sunnyvale, USA), as described hereinafter.
# II. Functional Tests Carried Out on the Vanilloid Receptor (VR1)
# The agonistic or antagonistic effect of the substances to be tested on the vanilloid receptor 1 (VR1) can also be determined using the following assay. In this assay, the influx of Ca^2+ through the channel is quantified with the aid of a Ca^2+-sensitive dye (type Fluo-4, Molecular Probes Europe BV, Leiden, the Netherlands) in a fluorescent imaging plate reader (FLIPR, Molecular Devices, Sunnyvale, USA).
# Chinese hamster ovary cells (CHO K1 cells, European Collection of Cell Cultures (ECACC) United Kingdom) are stably transfected with the VR1 gene. For functional testing, these cells are plated out on poly-D-lysine-coated black 96-well plates having a clear base (BD Biosciences, Heidelberg, Germany) at a density of 25,000 cells/well. The cells are incubated overnight at 37° C. and 5% CO2 in a culture medium (Ham's F12 nutrient mixture, 10% by volume of FCS (foetal calf serum), 18 μg/ml of L-proline). The next day the cells are incubated with Fluo-4 (Fluo-4 2 μM, 0.01% by volume of Pluronic F127, Molecular Probes in HBSS (Hank's buffered saline solution), Gibco Invitrogen GmbH, Karlsruhe, Germany) for 30 minutes at 37° C. Subsequently, the plates are washed three times with HBSS buffer and after further incubation for 15 minutes at RT used for Ca^2+ measurement in a FLIPR assay. The Ca^2+-dependent fluorescence is measured before and after the addition of the substances to be tested (λex wavelength=488 nm, λem=540 nm). Quantification is carried out by measuring the highest fluorescence intensity (FC, fluorescence counts) over time.
# The FLIPR protocol consists of 2 substance additions. First the compounds to be tested (10 μM) are pipetted onto the cells and the Ca^2+ influx is compared with the control (capsaicin 10 μM) (% activation based on the Ca^2+ signal after the addition of 10 μM of capsaicin). After 5 minutes' incubation, 100 nM of capsaicin are applied and the Ca^2+ influx is also determined.
# Desensitising agonists and antagonists led to suppression of the Ca^2+ influx. The % inhibition is calculated compared to the maximum achievable inhibition with 10 μM of capsaicin.
# Starting from the percentage displacement caused by different concentrations of the compounds to be tested of general formula I, IC50 inhibitory concentrations which cause a 50-per cent displacement of capsaicin were calculated. Ki values for the test substances were obtained by conversion by means of the Cheng-Prusoff equation (Cheng, Prusoff; Biochem. Pharmacol. 22, 3099-3108, 1973).
# The affinity of the compounds according to the invention for the vanilloid receptor 1 (VR1/TRPV1 receptor) was determined as described hereinbefore (pharmacological methods I and II respectively).
# T1 sequence (Q8NER1 whole entry): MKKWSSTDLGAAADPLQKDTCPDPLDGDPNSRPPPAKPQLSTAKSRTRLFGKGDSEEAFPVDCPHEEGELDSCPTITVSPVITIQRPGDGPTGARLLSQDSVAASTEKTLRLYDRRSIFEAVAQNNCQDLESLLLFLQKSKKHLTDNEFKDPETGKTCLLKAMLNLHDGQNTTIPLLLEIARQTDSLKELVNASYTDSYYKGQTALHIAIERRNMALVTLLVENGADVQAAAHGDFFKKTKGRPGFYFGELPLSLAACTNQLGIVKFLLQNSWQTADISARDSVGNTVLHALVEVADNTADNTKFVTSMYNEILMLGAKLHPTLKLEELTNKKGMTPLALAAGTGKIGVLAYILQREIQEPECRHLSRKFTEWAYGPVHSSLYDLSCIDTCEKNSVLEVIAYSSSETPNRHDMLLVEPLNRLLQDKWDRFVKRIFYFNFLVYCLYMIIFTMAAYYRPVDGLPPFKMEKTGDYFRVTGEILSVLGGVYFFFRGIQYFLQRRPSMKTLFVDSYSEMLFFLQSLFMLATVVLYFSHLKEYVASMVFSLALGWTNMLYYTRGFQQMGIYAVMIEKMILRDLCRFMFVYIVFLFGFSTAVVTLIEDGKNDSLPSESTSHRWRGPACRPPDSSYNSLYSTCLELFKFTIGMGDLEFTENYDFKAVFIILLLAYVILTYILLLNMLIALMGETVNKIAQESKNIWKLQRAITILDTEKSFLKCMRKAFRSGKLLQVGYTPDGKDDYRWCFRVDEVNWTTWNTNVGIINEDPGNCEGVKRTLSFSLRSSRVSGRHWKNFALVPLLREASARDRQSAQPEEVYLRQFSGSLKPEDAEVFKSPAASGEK
row,Ki (human being) [nM] Cap: agonist / partial agonist / no effect,SMILES
1,AG,"CC(C)(C)c1cc(CNC(=O)Nc2ccc3c(c2)OC(F)(F)O3)n(-c2cccc(Cl)c2)n1 [Example 187, 1-((3-tert-butyl-1-(3-chlorophenyl)-1H-pyrazol-5-yl)methyl)-3-(2,2-difluorobenzo[d][1,3]dioxol-5-yl)urea]"
2,AG,"O=C(NCc1cc(C(F)(F)F)nn1-c1cccc(Cl)c1)Nc1cccc2c(=O)[nH]ccc12 [Example 196, 1-((1-(3-chlorophenyl)-3-(trifluoromethyl)-1H-pyrazol-5-yl)methyl)-3-(1-oxo-1,2-dihydroisoquinolin-5-yl)urea]"
3,pAG,"CC(C(=O)NCc1cc(C(F)(F)F)nn1-c1cccc(Cl)c1)c1ccc2nc(N)sc2c1 (stereo not shown) [Example 43, 2-(2-aminobenzo[d]thiazol-6-yl)-N-((1-(3-chlorophenyl)-3-(trifluoromethyl)-1H-pyrazol-5-yl)methyl)propanamide]"
4,AG,"CC(C(=O)NCc1cc(C(F)(F)F)nn1-c1cccc(Cl)c1)c1cccc2c1ccc[n+]2[O-] (stereo not shown) [Example 198, 5-(1-((1-(3-chlorophenyl)-3-(trifluoromethyl)-1H-pyrazol-5-yl)methylamino)-1-oxopropan-2-yl)quinolin 1-oxide]"
5,pAG,"CC(C)(C)c1cc(CNC(=O)Nc2cccc3c2CCC3)n(-c2cccc(Cl)c2)n1 [Example 78, 1-((3-tert-butyl-1-(3-chlorophenyl)-1H-pyrazol-5-yl)methyl)-3-(2,3-dihydro-1H-inden-4-yl)urea]"
6,pAG,"CC(C)(C)c1cc(CNC(=O)Nc2cccc3c2OCC3)n(-c2cccc(Cl)c2)n1 [Example 185, 1-((3-tert-butyl-1-(3-chlorophenyl)-1H-pyrazol-5-yl)methyl)-3-(2,3-dihydrobenzofuran-7-yl)urea]"
7,pAG,"CC(C(=O)NCc1cc(C(F)(F)F)nn1-c1cccc(Cl)c1)c1cccc2c1CCC2=O (stereo not shown) [Example 206, N-((1-(3-chlorophenyl)-3-(trifluoromethyl)-1H-pyrazol-5-yl)methyl)-2-(1-oxo-2,3-dihydro-1H-inden-4-yl)propanamide]"

# Same assay, conditions: capsaicin (Cap); includes values given in brackets after pAG; read-out: Ki (human being) [nM] Cap
row,Ki,SMILES
1,8.1 nM,"CC(C(=O)NCc1cc(C(F)(F)F)nn1-c1cccc(Cl)c1)c1cccc2cn[nH]c12 (stereo not shown) [Example 210, N-((1-(3-chlorophenyl)-3-(trifluoromethyl)-1H-pyrazol-5-yl)methyl)-2-(1H-indazol-7-yl)propanamide]"
2,34 nM,"CC(C)(C)c1cc(CNC(=O)Nc2ccc3c(c2)CCC3)n(-c2cccc(F)c2)n1 [Example 176, 1-((3-tert-butyl-1-(3-fluorophenyl)-1H-pyrazol-5-yl)methyl)-3-(2,3-dihydro-1H-inden-5-yl)urea]"
3,10.3 nM,"CC(C)(C)c1cc(CNC(=O)Nc2ccc3c(c2)CCC3)n(-c2ccc(F)c(Cl)c2)n1 [Example 177, 1-((3-tert-butyl-1-(3-chloro-4-fluorophenyl)-1H-pyrazol-5-yl)methyl)-3-(2,3-dihydro-1H-inden-5-yl)urea]"
4,22.9 nM,"CC(C(=O)NCc1cc(C(F)(F)F)nn1-c1cccc(Cl)c1)c1ccc2nc(N)sc2c1 (stereo not shown) [Example 43, 2-(2-aminobenzo[d]thiazol-6-yl)-N-((1-(3-chlorophenyl)-3-(trifluoromethyl)-1H-pyrazol-5-yl)methyl)propanamide]"
5,30.4 nM,"CC(C(=O)NCc1cc(C(F)(F)F)nn1-c1cccc(Cl)c1)c1ccc2c(c1)C=CC(C)(C)O2 (stereo not shown) [Example 190, N-((1-(3-chlorophenyl)-3-(trifluoromethyl)-1H-pyrazol-5-yl)methyl)-2-(2,2-dimethyl-2H-chromen-6-yl)propanamide]"
6,4 nM,"CC(C(=O)NCc1cc(C(F)(F)F)nn1-c1cccc(Cl)c1)c1ccc2ncsc2c1 (stereo not shown) [Example 42, 2-(benzo[d]thiazol-6-yl)-N-((1-(3-chlorophenyl)-3-(trifluoromethyl)-1H-pyrazol-5-yl)methyl)propanamide]"
7,6.6 nM,"CC(C(=O)NCc1cc(C(F)(F)F)nn1-c1cccc(Cl)c1)c1cccc2c1CCCC2 (stereo not shown) [Example 2, N-((1-(3-chlorophenyl)-3-(trifluoromethyl)-1H-pyrazol-5-yl)methyl)-2-(5,6,7,8-tetrahydronaphthalen-1-yl)propanamide]"
8,70.2 nM,"O=C(NCc1cc(C(F)(F)F)nn1-c1ccc(F)cc1)Nc1ccc2c(c1)CCC2 [Example 175, 1-(2,3-dihydro-1H-inden-5-yl)-3-((1-(4-fluorophenyl)-3-(trifluoromethyl)-1H-pyrazol-5-yl)methyl)urea]"
9,17.1 nM,"Cc1c(C(F)(F)F)nn(-c2cccc(Cl)c2)c1CNC(=O)C(C)c1ccc2c(c1)OCCO2 (stereo not shown) [Example 200, N-((1-(3-chlorophenyl)-4-methyl-3-(trifluoromethyl)-1H-pyrazol-5-yl)methyl)-2-(2,3-dihydrobenzo[b][1,4]dioxin-6-yl)propanamide]"
10,75.8 nM,"O=C(NCc1cc(C(F)(F)F)nn1-c1ccc(Cl)cc1)Nc1ccc2c(c1)CCC2 [Example 174, 1-((1-(4-chlorophenyl)-3-(trifluoromethyl)-1H-pyrazol-5-yl)methyl)-3-(2,3-dihydro-1H-inden-5-yl)urea]"
11,12.8 nM,"CC(C(=O)NCc1cc(C(F)(F)F)nn1-c1cccc(Cl)c1)c1ccc2c(c1)C(=O)CC2 (stereo not shown) [Example 6, N-((1-(3-chlorophenyl)-3-(trifluoromethyl)-1H-pyrazol-5-yl)methyl)-2-(3-oxo-2,3-dihydro-1H-inden-5-yl)propanamide]"
12,33.5 nM,"CCCCCn1nc(C(F)(F)F)cc1CNC(=O)C(C)c1cccc2[nH]ncc12 (stereo not shown) [Example 199, 2-(1H-indazol-4-yl)-N-((1-pentyl-3-(trifluoromethyl)-1H-pyrazol-5-yl)methyl)propanamide]"
13,1.6 nM,"CC(C(=O)NCc1cc(C(C)(C)C)nn1-c1cccc(Cl)c1)c1cc(F)cc2[nH]ncc12 (stereo not shown) [Example 193, N-((3-tert-butyl-1-(3-chlorophenyl)-1H-pyrazol-5-yl)methyl)-2-(6-fluoro-1H-indazol-4-yl)propanamide]"
14,36.3 nM,"O=C(NCc1cc(C(F)(F)F)nn1-c1ccc(C(F)(F)F)cc1)Nc1ccc2c(c1)CCC2 [Example 179, 1-(2,3-dihydro-1H-inden-5-yl)-3-((3-(trifluoromethyl)-1-(4-(trifluoromethyl)phenyl)-1H-pyrazol-5-yl)methyl)urea]"
15,2.4 nM,"CC(C)(C)c1cc(CNC(=O)Nc2cccc3c2CCC3)n(-c2cccc(Cl)c2)n1 [Example 78, 1-((3-tert-butyl-1-(3-chlorophenyl)-1H-pyrazol-5-yl)methyl)-3-(2,3-dihydro-1H-inden-4-yl)urea]"
16,0.5 nM,"CC(C(=O)NCc1cc(C(F)(F)F)nn1-c1cccc(Cl)c1)c1ccc2cccnc2c1 (stereo not shown) [Example 72, N-((1-(3-chlorophenyl)-3-(trifluoromethyl)-1H-pyrazol-5-yl)methyl)-2-(quinolin-7-yl)propanamide]"
17,39.7 nM,"CC(C)(C)c1cc(CNC(=O)Nc2cccc3c2OCC3)n(-c2cccc(Cl)c2)n1 [Example 185, 1-((3-tert-butyl-1-(3-chlorophenyl)-1H-pyrazol-5-yl)methyl)-3-(2,3-dihydrobenzofuran-7-yl)urea]"
18,5.9 nM,"CC(C)(C)c1cc(CNC(=O)Cc2ccc3c(c2)OCCO3)n(-c2cccc(Cl)c2)n1 [Example 188, N-((3-tert-butyl-1-(3-chlorophenyl)-1H-pyrazol-5-yl)methyl)-2-(2,3-dihydrobenzo[b][1,4]dioxin-6-yl)acetamide]"
19,28.4 nM,"CC(C(=O)NCc1cc(C2CC2)nn1-c1cccc(Cl)c1)c1ccc2c(c1)OCO2 (stereo not shown) [Example 183, 2-(benzo[d][1,3]dioxol-5-yl)-N-((1-(3-chlorophenyl)-3-cyclopropyl-1H-pyrazol-5-yl)methyl)propanamide]"
20,41 nM,"O=C(NCc1cc(C(F)(F)F)nn1-c1ccc(OC(F)(F)F)cc1)Nc1ccc2c(c1)CCC2 [Example 180, 1-(2,3-dihydro-1H-inden-5-yl)-3-((1-(4-(trifluoromethoxy)phenyl)-3-(trifluoromethyl)-1H-pyrazol-5-yl)methyl)urea]"
21,0.4 nM,"CC(C(=O)NCc1cc(C(F)(F)F)nn1-c1cccc(Cl)c1)c1cccc2c1CCC2=O (stereo not shown) [Example 206, N-((1-(3-chlorophenyl)-3-(trifluoromethyl)-1H-pyrazol-5-yl)methyl)-2-(1-oxo-2,3-dihydro-1H-inden-4-yl)propanamide]"
